# Reference: patent US12240854B2, “TRAF 6 inhibitors” (Helmholtz Zentrum München - Deutsches Forschungszentrum für …, priority 2018, dated 2025)
# Molecular target: T1, TRAF6WTStrepII-Ubc13FH interaction (Homo sapiens, UniProt Q9Y4K3)
# T1 construct: RING-Zincfinger1 (RZ1) domain (residues 50-159) of human TRAF6 wildtype; made in house; host or cells: E. coli BL21 codon plus RIPL
# T1 sequence (Q9Y4K3 with tags, fused parts or gaps): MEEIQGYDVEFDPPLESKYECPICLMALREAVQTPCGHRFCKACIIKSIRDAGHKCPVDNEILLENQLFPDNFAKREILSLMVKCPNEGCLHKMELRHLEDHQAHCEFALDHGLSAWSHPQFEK
# Test: ALPHAScreen TRAF6-Ubc13 interaction assay
# Type: binding
# Conditions: TRAF6 100 nM, Ubc13FH 75 nM; class symbols; read-out: IC50 Alphascreen (inhibition of TRAF6-UBC13 interaction)
# Text: In order to identify small molecules that specifically target the RZ1 domain of TRAF6 and thereby prevent its binding to Ubc13, the ALPHAScreen technology (PerkinElmer) was chosen to detect TRAF6WTStrepII-Ubc13FH interaction in High-Throughput-Screenings as well as Structure Activity Relationship (SAR) analysis.
# For performance of an automated ALPHAScreen assay, all following components were pre-diluted in ALPHAScreen buffer (1×PBS, 0.5% BSA, 0.01% Tween-20). First, the TRAF6 protein (end concentration 100 nM, 30 μL volume) was added to 384-well-opti-plates involving the MultiFlo dispensing system (BioTek) followed by transfer of the compounds via the Sciclone G3 transfer station (PerkinElmer). After addition of Ubc13FH (end concentration 75 nM, 10 μL volume) with the MultiFlo system and incubation for one hour at room temperature, both beads (Strep-Tactin Alpha Donor beads and Nickel-Chelate acceptor beads; end concentrations 4 μg each, 10 μL volume each) were mixed and added using the MultiFlo system in subdued light. Read-out of the plates occurred after another hour of incubation at room temperature. Statistical parameters including the coefficient of variation, Z′ factor and signal window were calculated to determine the quality of the HTS campaign. To evaluate the efficacy of the compounds, ALPHAScreen units of compound-treated samples were referred to DMSO control treated samples. Thereby, the TRAF6D57K mutant served as the control for minimum signal and was included on every plate of the screening. Compounds that inhibited TRAF6WTStrepII-Ubc13FH by more than 25% were considered as actives. After elimination of ALPHAScreen frequent hitter compounds and His-tag frequent hitters (Schorpp, K., I. Rothenaigner, E. Salmina, et al., Identification of Small-Molecule Frequent Hitters from AlphaScreen High-Throughput Screens. J Biomol Screen, 2014. 19(5): p. 715-26), 178 compounds were defined as primary hits and were subsequently tested in five-point serial dilution assays (2.5-40 μM) in TRAF6WTStrepII-Ubc13FH ALPHAScreen experiments. Only compounds with dose-dependent effects on TRAF6WTStrepII-Ubc13FH (n=27) were taken for further research. For analog testing, all compounds were analyzed in ten-point titration (0.2-100 μM) in TRAF6WTStrepII-Ubc13FH ALPHAScreen experiments. In parallel, the compounds were tested in the ALPHAScreen TruHits Kit (PerkinElmer) to rule out unspecific interference with the ALPHAScreen technology.
IC50 [µM],inhibition at 100 µM [%],SMILES
≤ 10,–,Cc1nn(-c2ccc3nnc(C)n3n2)c(C)c1CCC(=O)N1CCN(Cc2ccccc2C#N)CC1 [Example 127]
≤ 10,–,Cc1nn(-c2ccc3nnc(C)n3n2)c(C)c1CCC(=O)N1CCN(Cc2cccc(-c3ccccc3)c2)CC1 [Example 128]
≤ 3,–,Cc1cc(CN2CCN(C(=O)CCc3c(C)nn(-c4ccc5nnc(C)n5n4)c3C)CC2)cc([N+](=O)[O-])c1 [Example 129]
≤ 3,–,Cc1nn(-c2ccc3nnc(C)n3n2)c(C)c1CCC(=O)N1CCN(Cc2ccc(S(N)(=O)=O)cc2)CC1 [Example 130]
≤ 3,–,Cc1nn(-c2ccc3nnc(C)n3n2)c(C)c1CCC(=O)N1CCN(Cc2ccc(C(=O)O)c(F)c2)CC1 [Example 131]
≤ 10,–,Cc1nn(-c2ccc3nnc(C)n3n2)c(C)c1CCC(=O)N1CCN(Cc2ccc(Cl)cc2Cl)CC1 [Example 132]
≤ 10,–,Cc1cccc(CN2CCN(C(=O)CCc3c(C)nn(-c4ccc5nnc(C)n5n4)c3C)CC2)c1 [Example 133]
≤ 3,–,Cc1nn(-c2ccc3nnc(C)n3n2)c(C)c1CCC(=O)N1CCN(Cc2cccc(I)c2)CC1 [Example 134]
≤ 3,–,Cc1nn(-c2ccc3nnc(C)n3n2)c(C)c1CCC(=O)N1CCN(Cc2ccc(Cl)c(Cl)c2)CC1 [Example 135]
≤ 10,–,Cc1nn(-c2ccc3nnc(C)n3n2)c(C)c1CCC(=O)N1CCN(Cc2ccc(C(F)(F)F)c(F)c2)CC1 [Example 136]
≤ 10,–,Cc1nn(-c2ccc3nnc(C)n3n2)c(C)c1CCC(=O)N1CCN(Cc2ccc3cn[nH]c3c2)CC1 [Example 137]
≤ 10,–,Cc1nn(-c2ccc3nnc(C)n3n2)c(C)c1CCC(=O)N1CCN(Cc2cccc3ncccc23)CC1 [Example 138]
≤ 30,–,Cc1ccc(CN2CCN(C(=O)CCc3c(C)nn(-c4ccc5nnc(C)n5n4)c3C)CC2)cc1 [Example 139]
≤ 30,–,Cc1nn(-c2ccc3nnc(C)n3n2)c(C)c1CCC(=O)N1CCN(Cc2ccc(F)c(F)c2)CC1 [Example 140]
≤ 30,–,Cc1nn(-c2ccc3nnc(C)n3n2)c(C)c1CCC(=O)N1CCN(Cc2cccc3ccccc23)CC1 [Example 141]
≤ 10,–,Cc1nn(-c2ccc3nnc(C)n3n2)c(C)c1CCC(=O)N1CCN(Cc2c(Cl)cccc2Cl)CC1 [Example 142]
≤ 30,–,Cc1nn(-c2ccc3nnc(C)n3n2)c(C)c1CCC(=O)N1CCN(Cc2ccc(Cl)cc2)CC1 [Example 143]
≤ 10,–,Cc1nn(-c2ccc3nnc(C)n3n2)c(C)c1CCC(=O)N1CCN(Cc2ccccc2Cl)CC1 [Example 144]
≤ 10,–,Cc1nn(-c2ccc3nnc(C)n3n2)c(C)c1CCC(=O)N1CCC(CCc2ccccc2)CC1 [Example 145]
≤ 3,–,Cc1nn(-c2ccc3nnc(C)n3n2)c(C)c1CCC(=O)N1CCN(Cc2cc(F)c(O)c(F)c2)CC1 [Example 146]
≤ 10,–,Cc1nn(-c2ccc3nnc(C)n3n2)c(C)c1CCC(=O)N1CCN(Cc2cccc([N+](=O)[O-])c2)CC1 [Example 149]
≤ 10,–,Cc1nn(-c2ccc3nnc(C)n3n2)c(C)c1CCC(=O)N1CCN(Cc2ccc3cccnc3c2)CC1 [Example 150]
≤ 10,–,Cc1nn(-c2ccc3nnc(C)n3n2)c(C)c1CCC(=O)N1CCN(Cc2cccc(C(N)=O)c2)CC1 [Example 151]
≤ 3,–,Cc1nn(-c2ccc3nnc(C)n3n2)c(C)c1CCC(=O)N1CCN(Cc2cccc3cccnc23)CC1 [Example 153]
≤ 3,–,Cc1nn(-c2ccc3nnc(C)n3n2)c(C)c1CCC(=O)N1CCN(Cc2cccc(-c3nn[nH]n3)c2)CC1 [Example 154]
≤ 3,–,Cc1nn(-c2ccc3nnc(C)n3n2)c(C)c1CCC(=O)N1CCN(Cc2cccc(S(C)(=O)=O)c2)CC1 [Example 155]

IC50 [µM],inhibition at 100 µM [%],SMILES
≤ 10,–,Cc1nn(-c2ccc3nnc(C)n3n2)c(C)c1CCC(=O)N1CCN(Cc2cccc(NS(C)(=O)=O)c2)CC1 [Example 156]
≤ 10,–,COc1ccc(CN2CCN(C(=O)CCc3c(C)nn(-c4ccc5nnc(C)n5n4)c3C)CC2)cc1 [Example 157]
≤ 10,–,Cc1nn(-c2ccc3nnc(C)n3n2)c(C)c1CCC(=O)N1CCN(Cc2cccc(F)c2)CC1 [Example 158]
≤ 3,–,Cc1nn(-c2ccc3nnc(C)n3n2)c(C)c1CCC(=O)N1CCN(Cc2cccc(C(F)(F)F)c2)CC1 [Example 159]
≤ 3,–,Cc1ccccc1CN1CCN(C(=O)CCc2c(C)nn(-c3ccc4nnc(C)n4n3)c2C)CC1 [Example 160]
≤ 3,–,Cc1nn(-c2ccc3nnc(C)n3n2)c(C)c1CCC(=O)N1CCN(Cc2cccc(C3CC3)c2)CC1 [Example 161]
≤ 10,–,Cc1nn(-c2ccc3nnc(C)n3n2)c(C)c1CCC(=O)N1CCN(Cc2ccc(F)c(C(F)(F)F)c2)CC1 [Example 162]
≤ 3,–,Cc1nn(-c2ccc3nnc(C)n3n2)c(C)c1CCC(=O)N1CCN(Cc2cccc(Br)c2)CC1 [Example 163]
≤ 3,–,Cc1nn(-c2ccc3nnc(C)n3n2)c(C)c1CCC(=O)N1CCN(Cc2ccc(-c3nnn[nH]3)cc2)CC1 [Example 164]
≤ 10,–,Cc1nn(-c2ccc3nnc(C)n3n2)c(C)c1CCC(=O)N1CCN(Cc2ccc3cc[nH]c3c2)CC1 [Example 165]
≤ 10,–,Cc1nn(-c2ccc3nnc(C)n3n2)c(C)c1CCC(=O)N1CCN(Cc2ccc3oc(=O)ccc3c2)CC1 [Example 166]
–,≥ 30,Cc1nn(-c2ccc3nnc(C)n3n2)c(C)c1CCC(=O)NC1CCN(c2ccccc2)CC1 [Example 167]
≤ 10,–,Cc1nn(-c2ccc3nnc(C)n3n2)c(C)c1CCC(=O)N1CCC(Oc2ccccc2)CC1 [Example 168]
≤ 10,–,Cc1nn(-c2ccc3nnc(C)n3n2)c(C)c1CCC(=O)N1CCN(Cc2ccc(-c3nnn[nH]3)cc2F)CC1 [Example 169]
≤ 3,–,Cc1nn(-c2ccc3nnc(C(F)(F)F)n3n2)c(C)c1CCC(=O)N1CCN(Cc2ccc(-c3nnn[nH]3)cc2F)CC1 [Example 170]
≤ 3,–,Cc1nn(-c2ccc3nnc(C)n3n2)c(C)c1CCC(=O)N1CCN(Cc2cc(-c3nnn[nH]3)ccc2Cl)CC1 [Example 171]
≤ 3,–,Cc1nn(-c2ccc3nnc(C(F)(F)F)n3n2)c(C)c1CCC(=O)N1CCN(Cc2cc(-c3nnn[nH]3)ccc2Cl)CC1 [Example 172]
≤ 3,–,Cc1nn(-c2ccc3nnc(C)n3n2)c(C)c1CCC(=O)N1CCN(Cc2ccc(-c3nnn[nH]3)cc2Cl)CC1 [Example 173]
≤ 3,–,Cc1nn(-c2ccc3nnc(C(F)(F)F)n3n2)c(C)c1CCC(=O)N1CCN(Cc2ccc(-c3nnn[nH]3)cc2Cl)CC1 [Example 174]
≤ 3,–,Cc1nn(-c2ccc3nnc(C)n3n2)c(C)c1CCC(=O)N1CCN(Cc2cccc(-c3nnn[nH]3)c2Cl)CC1 [Example 175]
≤ 3,–,Cc1nn(-c2ccc3nnc(C(F)(F)F)n3n2)c(C)c1CCC(=O)N1CCN(Cc2cccc(-c3nnn[nH]3)c2Cl)CC1 [Example 176]
≤ 3,–,Cc1nn(-c2ccc3nnc(C)n3n2)c(C)c1CCC(=O)N1CCN(Cc2cc(F)cc(-c3nnn[nH]3)c2)CC1 [Example 177]
≤ 3,–,Cc1nn(-c2ccc3nnc(C(F)(F)F)n3n2)c(C)c1CCC(=O)N1CCN(Cc2cc(F)cc(-c3nnn[nH]3)c2)CC1 [Example 178]
≤ 3,–,Cc1nn(-c2ccc3nnc(C)n3n2)c(C)c1CCC(=O)N1CCN(Cc2cccc(-c3nnn[nH]3)c2C)CC1 [Example 179]
≤ 10,–,Cc1nn(-c2ccc3nnc(C(F)(F)F)n3n2)c(C)c1CCC(=O)N1CCN(Cc2cccc(-c3nnn[nH]3)c2C)CC1 [Example 180]
